In paper PMC2790557 (Biochemistry, 2009):

Biological target: CK2 (casein kinase II)

## OC[C@H]1O[C@@H](n2cnc3cc(Cl)c(Cl)cc32)[C@H](O)[C@@H]1O [DRB, 5,6-Dichloro-1-(β-D-ribofuranosyl)benzimidazole]
  IC50: ~10 µM
